Measured values reported in PubChem BioAssay (NCI).
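Dose response: 5 concentrations. Exposure: 48 h. Format: 96-well plates. Endpoint: linear interpolation; highest concentration if not reached. GI50 is the concentration that inhibits growth by half. At the TGI there is no net growth.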

Key:
Experiment in all cases: inhibition of tumour cell growth, NCI panel, 48 h
NCI-H23 lung = tested on: NCI-H23 lung
CAKI-1 renal = tested on: CAKI-1 renal
TK-10 renal = tested on: TK-10 renal
HCT-15 colon = tested on: HCT-15 colon
KM12 colon = tested on: KM12 colon
HOP-92 NSCLC = tested on: HOP-92 NSCLC
OVCAR-4 ovarian = tested on: OVCAR-4 ovarian
SK-MEL-28 melanoma = tested on: SK-MEL-28 melanoma
SF-268 CNS = tested on: SF-268 CNS
RPMI-8226 leukemia = tested on: RPMI-8226 leukemia
SK-OV-3 ovarian = tested on: SK-OV-3 ovarian
A549 NSCLC = tested on: A549 NSCLC
EKVX NSCLC = tested on: EKVX NSCLC
BT-549 breast = tested on: BT-549 breast
MCF7 breast = tested on: MCF7 breast
DU-145 prostate = tested on: DU-145 prostate
MOLT-4 leukemia = tested on: MOLT-4 leukemia
SNB-75 CNS = tested on: SNB-75 CNS
UACC-257 melanoma = tested on: UACC-257 melanoma
SW-620 colon = tested on: SW-620 colon
T-47D breast = tested on: T-47D breast
LOX IMVI melanoma = tested on: LOX IMVI melanoma
A498 renal = tested on: A498 renal
HL-60(TB) leukemia = tested on: HL-60(TB) leukemia
HT29 colon = tested on: HT29 colon
MDA-MB-231 breast = tested on: MDA-MB-231 breast
OVCAR-8 ovarian = tested on: OVCAR-8 ovarian
ACHN renal = tested on: ACHN renal
OVCAR-5 ovarian = tested on: OVCAR-5 ovarian
NCI-H226 lung = tested on: NCI-H226 lung
SR leukemia = tested on: SR leukemia
SF-539 CNS = tested on: SF-539 CNS
HS 578T breast = tested on: HS 578T breast
UO-31 renal = tested on: UO-31 renal
PC-3 prostate = tested on: PC-3 prostate
U251 CNS = tested on: U251 CNS
CCRF-CEM leukemia = tested on: CCRF-CEM leukemia
SN12C renal = tested on: SN12C renal
M14 melanoma = tested on: M14 melanoma
COLO 205 colon = tested on: COLO 205 colon
OVCAR-3 ovarian = tested on: OVCAR-3 ovarian
MDA-MB-435 = tested on: MDA-MB-435
NCI-H460 lung = tested on: NCI-H460 lung
HCC-2998 colon = tested on: HCC-2998 colon
NCI-H522 lung = tested on: NCI-H522 lung
786-0 renal = tested on: 786-0 renal
NCI/ADR-RES ovarian = tested on: NCI/ADR-RES ovarian
SK-MEL-5 melanoma = tested on: SK-MEL-5 melanoma
RXF 393 renal = tested on: RXF 393 renal
SNB-19 CNS = tested on: SNB-19 CNS
K-562 leukemia = tested on: K-562 leukemia
HCT-116 colon = tested on: HCT-116 colon
HOP-62 NSCLC = tested on: HOP-62 NSCLC
SF-295 CNS = tested on: SF-295 CNS
SK-MEL-2 melanoma = tested on: SK-MEL-2 melanoma
IGROV1 ovarian = tested on: IGROV1 ovarian

## Cc1cc(C(=O)Nc2cc(Nc3ncccc3-c3ncnc4nc[nH]c34)ccc2F)cc(C(C)(C)C#N)c1
NCI-H23 lung
  GI50: 0.379 µM
  TGI: > 100 µM
CAKI-1 renal
  GI50: 0.951 µM
  TGI: > 100 µM
TK-10 renal
  GI50: 4.07 µM
  TGI: > 100 µM
HCT-15 colon
  GI50: 2.97 µM
  TGI: > 100 µM
KM12 colon
  GI50: 2.9 µM
  TGI: > 100 µM
HOP-92 NSCLC
  GI50: 0.145 µM
  TGI: 1.45 µM
OVCAR-4 ovarian
  GI50: 5.33 µM
  TGI: > 100 µM
SK-MEL-28 melanoma
  GI50: 0.0402 µM
  TGI: > 100 µM
SF-268 CNS
  GI50: 7.85 µM
  TGI: > 100 µM
RPMI-8226 leukemia
  GI50: 2.01 µM
  TGI: 53.5 µM
SK-OV-3 ovarian
  GI50: 26 µM
  TGI: > 100 µM
A549 NSCLC
  GI50: 3.77 µM
  TGI: > 100 µM
EKVX NSCLC
  GI50: 4.03 µM
  TGI: > 100 µM
BT-549 breast
  GI50: 2.95 µM
  TGI: > 100 µM
MCF7 breast
  GI50: 5.07 µM
  TGI: > 100 µM
DU-145 prostate
  GI50: 6.2 µM
  TGI: > 100 µM
MOLT-4 leukemia
  GI50: 3.45 µM
  TGI: > 100 µM
SNB-75 CNS
  GI50: 8.92 µM
  TGI: > 100 µM
UACC-257 melanoma
  GI50: 0.0867 µM
  TGI: > 100 µM
SW-620 colon
  GI50: 0.649 µM
  TGI: > 100 µM
T-47D breast
  GI50: 2.59 µM
  TGI: > 91.7 µM
LOX IMVI melanoma
  GI50: 0.0414 µM
  TGI: 0.338 µM
A498 renal
  GI50: 0.0748 µM
  TGI: 0.491 µM
HL-60(TB) leukemia
  GI50: 0.167 µM
  TGI: > 100 µM
HT29 colon
  GI50: 0.0739 µM
  TGI: > 100 µM
MDA-MB-231 breast
  GI50: 0.123 µM
  TGI: 5.36 µM
OVCAR-8 ovarian
  GI50: 3.02 µM
  TGI: > 100 µM
ACHN renal
  GI50: 1.22 µM
  TGI: > 100 µM
OVCAR-5 ovarian
  GI50: 0.211 µM
  TGI: > 100 µM
NCI-H226 lung
  GI50: 0.527 µM
  TGI: > 100 µM
SR leukemia
  GI50: 1.99 µM
  TGI: 45.3 µM
SF-539 CNS
  GI50: 1.19 µM
  TGI: > 63.8 µM
HS 578T breast
  GI50: 1.92 µM
  TGI: > 100 µM
UO-31 renal
  GI50: 0.239 µM
  TGI: > 100 µM
PC-3 prostate
  GI50: 7.13 µM
  TGI: > 100 µM
U251 CNS
  GI50: 3.74 µM
  TGI: > 100 µM
CCRF-CEM leukemia
  GI50: 3.47 µM
  TGI: > 100 µM
SN12C renal
  GI50: 1.91 µM
  TGI: > 100 µM
M14 melanoma
  GI50: 0.0388 µM
  TGI: 1.12 µM
COLO 205 colon
  GI50: 0.0526 µM
  TGI: > 100 µM
OVCAR-3 ovarian
  GI50: 5.99 µM
  TGI: > 100 µM
MDA-MB-435
  GI50: 0.182 µM
  TGI: > 100 µM
NCI-H460 lung
  GI50: 1.98 µM
  TGI: > 100 µM
HCC-2998 colon
  GI50: 0.415 µM
  TGI: > 78.9 µM
NCI-H522 lung
  GI50: 3.54 µM
  TGI: > 100 µM
786-0 renal
  GI50: 13.9 µM
  TGI: > 100 µM
NCI/ADR-RES ovarian
  GI50: 2.81 µM
  TGI: > 100 µM
SK-MEL-5 melanoma
  GI50: 1.38 µM
  TGI: 13.7 µM
RXF 393 renal
  GI50: 4.82 µM
  TGI: 42 µM
SNB-19 CNS
  GI50: 4.31 µM
  TGI: > 100 µM
K-562 leukemia
  GI50: 0.306 µM
  TGI: > 100 µM
HCT-116 colon
  GI50: 0.151 µM
  TGI: > 41.9 µM
HOP-62 NSCLC
  GI50: 0.461 µM
  TGI: > 100 µM
SF-295 CNS
  GI50: 4.45 µM
  TGI: > 100 µM
SK-MEL-2 melanoma
  GI50: 0.0866 µM
  TGI: 2.04 µM
IGROV1 ovarian
  GI50: 0.694 µM
  TGI: > 100 µM
